This is an account of results in US20260285849A1, “METHYLOPHIOPOGONONE A DERIVATIVE, AND PREPARATION AND USE THEREOF” (INSTITUTE OF MATERIA MEDICA, CHINESE ACADEMY OF MEDICAL …, priority 2022, published 2026).

Holding throughout (assay type): in vivo
Assay [1] relates to mice with hypertensive heart disease induced by angiotensin II (AngII). Put plainly: AngII-induced hypertensive heart disease mouse model: serum cTn-T and CK-MB (ELISA). How it is done: (§1) After male C57BL/6 mice were acclimated to the environment, they were randomly divided into 10 groups, namely the blank control group, the AngII model group, the AngII+telmisartan 10 mg/kg positive control group, the AngII+spironolactone 20 mg/kg positive control group, the AngII+Formula I (0.1, 0.5, 2 mg/kg) groups, and the AngII+Formula II (0.1, 0.5, 2 mg/kg) groups. The mice in the drug administration groups were intragastrically administered the corresponding doses of Formula I and Formula II compounds once a day at the same time. The mice in the positive control groups were intragastrically administered the corresponding doses of telmisartan and spironolactone once a day. The mice in the blank control group and the model group were given the same amount of solvent (0.5% CMC-Na solution). The administration volume was 10 mL/kg, and the administration was continuous for 14 days. From the 1st to the 13th day of drug administration, AngII modeling was carried out. The mice in the blank control group were subcutaneously injected with normal saline, and the mice in the other groups were subcutaneously injected with 1.44 mg/kg of AngII (modeling was carried out 2 h after drug administration), for a total of 13 times. Detection of serum biomarkers of myocardial injury: After the experiment, the animals were sacrificed by enucleation to obtain blood. The blood was left to stand at room temperature for 2 hours, and then centrifuged at 3500 rpm for 20 minutes to separate the serum. The contents of serum cardiac troponin cTn-T and myocardial enzyme CK-MB were determined according to the instructions of the ELISA kit.
(ELISA stands for enzyme-linked immunosorbent assay.)

For assay [2] the test system is unchanged. The assay is described as follows: AngII-induced hypertensive heart disease mouse model: echocardiogram. The settings on record: left ventricle, day 14. The method, then: After male C57BL/6 mice were acclimated to the environment, they were randomly divided into 10 groups, namely the blank control group, the AngII model group, the AngII+telmisartan 10 mg/kg positive control group, the AngII+spironolactone 20 mg/kg positive control group, the AngII+Formula I (0.1, 0.5, 2 mg/kg) groups, and the AngII+Formula II (0.1, 0.5, 2 mg/kg) groups. The mice in the drug administration groups were intragastrically administered the corresponding doses of Formula I and Formula II compounds once a day at the same time. The mice in the positive control groups were intragastrically administered the corresponding doses of telmisartan and spironolactone once a day. The mice in the blank control group and the model group were given the same amount of solvent (0.5% CMC-Na solution). The administration volume was 10 mL/kg, and the administration was continuous for 14 days.
From the 1st to the 13th day of drug administration, AngII modeling was carried out. The mice in the blank control group were subcutaneously injected with normal saline, and the mice in the other groups were subcutaneously injected with 1.44 mg/kg of AngII (modeling was carried out 2 h after drug administration), for a total of 13 times.
Echocardiogram detection: On the 14th day of drug administration (after 13 times of AngII modeling), 5 animals were randomly selected from each group. After anesthesia and fixation, the chest hair was shaved, and a small amount of coupling agent was applied to the chest. The Vevo 770 Imaging System, a small animal ultrasonic real-time imaging system, was used for echocardiogram examination. All echocardiogram indexes of the animals were continuously measured for 3 cardiac cycles, and the average value was taken.

The test system is the same in assay [3]. Put plainly: AngII-induced hypertensive heart disease mouse model: serum aldosterone (ALD) (ELISA). How it is done:
as §1, with “aldosterone (ALD) level:” for “biomarkers of myocardial injury:”, “content” for “contents”, “ALD was” for “cardiac troponin cTn-T and myocardial enzyme CK-MB were”

Where [4] appears, read: 0.1 mg/kg intragastric once a day 14 days.
The mark [5] stands for this setting: 0.5 mg/kg intragastric once a day 14 days.
Where [6] appears, read: 2 mg/kg intragastric once a day 14 days.
Where [7] appears, read: 0.1 mg/kg intragastric once a day.
Setting [8] is: 0.5 mg/kg intragastric once a day.
Setting [9] is: 2 mg/kg intragastric once a day.
The mark [10] stands for this setting: 20 mg/kg intragastric once a day 14 days.
[11] abbreviates: 20 mg/kg intragastric once a day.
The mark [12] stands for this setting: 10 mg/kg intragastric once a day 14 days.
Setting [13] is: 10 mg/kg intragastric once a day.

Turning to `Cc1c(O)cc(O)c2c(=O)c(Cc3ccc4c(c3)OCO4)coc12` [Formula II, 3-(benzo[d][1,3]dioxol-5-ylmethyl)-5,7-dihydroxy-8-methyl-4H-chromen-4-one], the figures for the CK-MB in assay [1] (setting [4]), in assay [1] (setting [5]) and in assay [1] (setting [6]) were 15.36 ± 2.41 ng/mL, 14.07 ± 1.33 ng/mL and 13.39 ± 2.57 ng/mL, respectively. Besides, the cTn-T came out at 153.56 ± 13.05 ng/L in assay [1] (setting [4]), 145.15 ± 15.79 ng/L in assay [1] (setting [5]) and 136.64 ± 18.24 ng/L in assay [1] (setting [6]). The “Post-diastolic posterio rwall thickness” value in assay [2] (setting [7]) amounted to 0.72 ± 0.08 mm; in assay [2] (setting [8]), 0.69 ± 0.06 mm; in assay [2] (setting [9]), 0.72 ± 0.06 mm. For the same molecule, the “Posterior wall thickness in systole” value in assay [2] (setting [7]) is given as 0.91 ± 0.10 mm; in assay [2] (setting [8]), 0.87 ± 0.04 mm; in assay [2] (setting [9]), 0.82 ± 0.11 mm. The ALD in assay [3] (setting [4]) was found to be 186.44 ± 21.59 pg/mL; in assay [3] (setting [5]), 177.28 ± 21.57 pg/mL; in assay [3] (setting [6]), 185.89 ± 12.61 pg/mL.
As for `CC(=O)S[C@@H]1CC2=CC(=O)CC[C@]2(C)[C@H]2CC[C@@]3(C)[C@@H](CC[C@@]34CCC(=O)O4)[C@H]12` [Spironolactone, reference compound], in assay [1] (setting [10]), the CK-MB is reported as 18.86 ± 1.40 ^ ng/mL and the cTn-T is 169.17 ± 21.95 ng/L. In addition, in assay [2] (setting [11]), the “Post-diastolic posterio rwall thickness” value was 0.81 ± 0.07 mm and the “Posterior wall thickness in systole” value worked out at 1.01 ± 0.08 mm. In addition, the ALD in assay [3] (setting [10]) was determined as 209.03 ± 25.11 pg/mL.
In assay [1] (setting [12]), `CCCc1nc2c(C)cc(-c3nc4ccccc4n3C)cc2n1Cc1ccc(-c2ccccc2C(=O)O)cc1` [Telmisartan, reference compound] had a CK-MB of 12.72 ± 1.09 ng/mL and a cTn-T of 134.07 ± 17.50 ng/L. Moreover, in assay [2] (setting [13]), the “Post-diastolic posterio rwall thickness” value amounted to 0.65 ± 0.07 mm and the “Posterior wall thickness in systole” value stood at 0.79 ± 0.16 mm. The ALD in assay [3] (setting [12]) was found to be 162.74 ± 7.38 pg/mL.
For the molecule `O=c1c(Cc2ccc3c(c2)OCO3)coc2cc(O)cc(O)c12` [Formula I], the CK-MB in assay [1] (setting [4]) is reported as 15.73 ± 1.79 ng/mL; in assay [1] (setting [5]) it was 15.17 ± 1.63 ng/mL; in assay [1] (setting [6]) it was 15.72 ± 1.89 ng/mL. Also, the results for the cTn-T in assay [1] (setting [4]), in assay [1] (setting [5]) and in assay [1] (setting [6]) were 167.25 ± 24.56 ng/L, 165.79 ± 23.78 ng/L and 164.52 ± 19.68 ng/L, respectively. Moreover, the “Post-diastolic posterio rwall thickness” value in assay [2] (setting [7]) worked out at 0.79 ± 0.09 mm; in assay [2] (setting [8]), 0.64 ± 0.02 mm; in assay [2] (setting [9]), 0.67 ± 0.08 mm. The “Posterior wall thickness in systole” value in assay [2] (setting [7]) is recorded as 0.90 ± 0.06 mm; in assay [2] (setting [8]) it was 0.87 ± 0.11 mm; in assay [2] (setting [9]), 0.90 ± 0.16 mm. Further, the ALD in assay [3] (setting [4]) came to 206.80 ± 16.10 pg/mL; in assay [3] (setting [5]), 192.69 ± 14.38 pg/mL; in assay [3] (setting [6]), 199.41 ± 31.27 pg/mL.
